Earlier results, collected in US5985868A, “Methods and compositions for treating androgen-dependant diseases using optically pure R-(-) casodex” (Sepracor Inc., priority 1998, dated 1999).

Experiments:
progesterone receptors = conditions: at 5 nm
glucocorticoid receptors = conditions: at 5 nm
[1] = control of morning sickness during pregnancy
[2] = in vivo
[3] = test system: prostatic acid phosphatase; conditions: human volunteers, 10-50 mg p.o. per day
[4] = racemic casodex at 30 or 50 mg
[5] = test system: serum testosterone, estradiol and LH; conditions: observed at all doses (10-50 mg p.o. per day)
[6] = estimated from oral studies
[7] = test system: peripheral androgen receptors
beta-adrenergic = conditions: L-form versus D-enantiomer
androgen = conditions: in vivo

Compound: C[C@]1(O)CC[C@H]2[C@@H]3CCC4=CC(=O)CCC4=C3C=C[C@@]21C [[^3 H]-R1881, methyltrienolone]
- binding to progesterone receptors (progesterone receptors): approximately 5%
- binding to glucocorticoid receptors (glucocorticoid receptors): approximately 5%

Compound: O=C1CCC(N2C(=O)c3ccccc3C2=O)C(=O)N1 [D-enantiomer of thalidomide, thalidomide]
- sedative effect [1]: safe and effective sedative

Compound: O=C1CCC(N2C(=O)c3ccccc3C2=O)C(=O)N1 [L-enantiomer of thalidomide, thalidomide]
- teratogenicity [2]: potent teratogen

Compound: CC(O)(CS(=O)(=O)c1ccc(F)cc1)C(=O)Nc1ccc(C#N)c(C(F)(F)F)c1 (racemic) [racemic casodex, 4'-cyano-3-[(4-fluorophenyl)sulfonyl]-2-hydroxy-2-methyl-3'-(trifluoromethyl)propionanilide]
- reduction in prostatic acid phosphatase levels [3]: 50 to 60%
- patients reporting gynecomastia and breast tenderness [4]: Over half the patients
- patients reporting hot flushes [4]: about 20%
- patients reporting nausea and vomiting, bone pain, confusion, constipation, headache, diarrhea, dyspepsia, fatigue, dizziness or rash [4]: less than 10%
- elevations of serum testosterone, estradiol and LH [5]: Significant but mild elevations
- average half life [6]: about 8 days
- glucocorticoid activity (glucocorticoid activity): no progestational or glucocorticoid activity
- agonist component at peripheral androgen receptors [7]: little if any agonist component

Compound: CC(C)NCC(O)COc1cccc2ccccc12 [L-form of propranolol, propranolol]
- potency relative to the D-enantiomer (beta-adrenergic): 100 times

Compound: C[C@](O)(CS(=O)(=O)c1ccc(F)cc1)C(=O)Nc1ccc(C#N)c(C(F)(F)F)c1 [R-(-)-casodex, N-[4-cyano-3-(trifluoromethyl)phenyl]-3-[(4-fluorophenyl)sulfonyl]-2-hydroxy-2-methylpropanamide]
- ED50 in inhibiting androgen in rats (androgen): 0.5 mg/kg
